Consider 20 compounds from patent US8138183B2, “Morpholino pyrimidine derivatives used in diseases linked to mTOR kinase and/or PI3K” (AstraZeneca AB, priority 2007, dated 2012).

Sequence of recombinant mTOR (P42345 1362-2549): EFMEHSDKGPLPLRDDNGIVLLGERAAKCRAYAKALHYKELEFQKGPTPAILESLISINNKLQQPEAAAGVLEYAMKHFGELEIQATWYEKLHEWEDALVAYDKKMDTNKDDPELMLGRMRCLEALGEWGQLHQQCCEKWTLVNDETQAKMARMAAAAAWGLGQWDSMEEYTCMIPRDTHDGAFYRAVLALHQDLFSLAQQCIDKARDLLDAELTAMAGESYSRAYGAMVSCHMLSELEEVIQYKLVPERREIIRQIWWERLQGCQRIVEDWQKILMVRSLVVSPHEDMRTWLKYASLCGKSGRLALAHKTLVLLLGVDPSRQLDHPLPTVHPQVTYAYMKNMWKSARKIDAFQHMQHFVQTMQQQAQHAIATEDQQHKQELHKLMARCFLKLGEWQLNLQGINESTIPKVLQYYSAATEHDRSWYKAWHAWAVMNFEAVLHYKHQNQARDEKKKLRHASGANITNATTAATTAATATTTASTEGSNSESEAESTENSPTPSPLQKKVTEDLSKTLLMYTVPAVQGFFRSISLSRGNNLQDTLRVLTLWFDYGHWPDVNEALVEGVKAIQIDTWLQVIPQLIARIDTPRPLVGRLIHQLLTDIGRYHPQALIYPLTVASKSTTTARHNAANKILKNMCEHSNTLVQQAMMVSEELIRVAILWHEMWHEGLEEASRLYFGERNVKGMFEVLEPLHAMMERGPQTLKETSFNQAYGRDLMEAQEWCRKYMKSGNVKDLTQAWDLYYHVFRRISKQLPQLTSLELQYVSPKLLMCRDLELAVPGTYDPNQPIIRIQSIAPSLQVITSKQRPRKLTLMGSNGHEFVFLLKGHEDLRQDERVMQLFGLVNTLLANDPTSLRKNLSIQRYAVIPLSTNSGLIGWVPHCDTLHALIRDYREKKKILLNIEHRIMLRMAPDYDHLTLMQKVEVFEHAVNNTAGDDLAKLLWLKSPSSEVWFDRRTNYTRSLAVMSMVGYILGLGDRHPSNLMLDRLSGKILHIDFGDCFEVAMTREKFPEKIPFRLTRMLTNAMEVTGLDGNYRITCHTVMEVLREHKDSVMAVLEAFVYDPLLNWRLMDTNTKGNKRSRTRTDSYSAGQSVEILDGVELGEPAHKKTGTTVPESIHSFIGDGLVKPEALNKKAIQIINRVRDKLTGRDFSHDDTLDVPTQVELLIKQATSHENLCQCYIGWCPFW

This test has as its target recombinant mTOR (Homo sapiens, UniProt P42345). Nature of the test: In Vitro mTOR Kinase Assay (Echo), Test (a)(ii) (AlphaScreen). Type of test: biochemical. The conditions noted are these: Echo acoustic dispensing. As to the method: (a)(ii) In Vitro mTOR Kinase Assay (Echo)
The assay used AlphaScreen technology (Gray et al., Analytical Biochemistry, 2003, 313: 234-245) to determine the ability of test compounds to inhibit phosphorylation by recombinant mTOR.
The HEK293 FLAG-tagged mTOR (1362-2549) stable cell line was routinely maintained at 37° C. with 5% CO2 up to a confluency of 70-90% in Dulbecco's modified Eagle's growth medium (DMEM; Invitrogen Limited, Paisley, UK Catalogue No. 41966-029) containing 10% heat-inactivated foetal calf serum (FCS; Sigma, Poole, Dorset, UK, Catalogue No. F0392), 1% L-glutamine (Gibco, Catalogue No. 25030-024) and 2 mg/ml Geneticin (G418 sulfate; Invitrogen Limited, UK Catalogue No. 10131-027). Following expression in the mammalian HEK293 cell line, expressed protein was purified using the FLAG epitope tag using standard purification techniques.
Aliquots ([…]) of each compound dilution were acoustically […] using a Labcyte Echo 550 into a well of a Greiner 384-well low volume (LV) white polystyrene plate (Greiner Bio-one). A […] mixture of recombinant purified mTOR enzyme, 1 μM biotinylated peptide substrate (Biotin-Ahx-[…]NH2; Bachem UK Ltd), ATP (20 μM) and a buffer solution [comprising Tris-HCl pH7.4 buffer (50 mM), EGTA (0.1 mM), bovine serum albumin (0.5 mg/mL), DTT (1.25 mM) and manganese chloride (10 mM)] was incubated at room temperature for […].
These assay solutions were incubated for 2 hours at room temperature.
Each reaction was stopped by the addition of […] of a mixture of EDTA (50 mM), bovine serum albumin (BSA; 0.5 mg/mL) and Tris-HCl pH7.4 buffer (50 mM) containing
p70 S6 Kinase (T389) 1A5 Monoclonal Antibody (Cell Signalling Technology, Catalogue No. 9206B) and AlphaScreen Streptavidin donor and Protein A acceptor beads (200 ng; Perkin Elmer, Catalogue No. 6760002B and 6760137R respectively) were added and the assay plates were left overnight at room temperature in the dark. The resultant signals arising from laser light excitation at 680 nm were read using a Packard Envision instrument.
The phosphorylated biotinylated peptide that is associated with AlphaScreen Streptavidin donor beads forms a complex with the p70 S6 Kinase (T389) 1A5 Monoclonal Antibody that is associated with Alphascreen Protein A acceptor beads. Upon laser light excitation at 680 nm, the donor bead : acceptor bead complex produces a signal that can be measured. Accordingly, the presence of mTOR kinase activity results in an assay signal. In the presence of an mTOR kinase inhibitor, signal strength is reduced. mTOR enzyme inhibition for a given test compound was expressed as an IC50 value.
As for `C[C@H]1COCCN1c1cc(C(C)(C)O)nc(-c2ccc(NC(=S)NCCO)cc2)n1` [Example 5, 3-(2-Hydroxyethyl)-1-[4-[4-(2-hydroxypropan-2-yl)-6-[(3S)-3-methylmorpholin-4-yl]pyrimidin-2-yl]phenyl]thiourea], the concentration for half-maximal inhibition (IC50) turned out to be 7.9 nM.

`CNC(=S)Nc1ccc(-c2nc(N3CCOC[C@@H]3C)cc(C(C)(C)S(=O)(=O)c3ccccc3)n2)cc1` [Example 3, 1-[4-[4-[2-(Benzenesulfonyl)propan-2-yl]-6-[(3S)-3-methylmorpholin-4-yl]pyrimidin-2-yl]phenyl]-3-methylthiourea]: the IC50 was 11 nM.

Regarding `COc1ccc(NC(=S)Nc2ccc(-c3nc(CS(C)(=O)=O)cc(N4CCOC[C@@H]4C)n3)cc2)cc1` [Example 1c, 3-(4-methoxyphenyl)-1-[4-[4-[(3S)-3-methylmorpholin-4-yl]-6-(methylsulfonylmethyl)pyrimidin-2-yl]phenyl]thiourea], the IC50 came out at 68.8 nM. For the compound `C[C@H]1COCCN1c1cc(C(C)(C)S(=O)(=O)CCCO)nc(-c2ccc(NC(=S)NCCO)cc2)n1` [Example 4a, 3-(2-hydroxyethyl)-1-[4-[4-[2-(3-hydroxypropylsulfonyl)propan-2-yl]-6-[(3S)-3-methylmorpholin-4-yl]pyrimidin-2-yl]phenyl]thiourea], the IC50 amounted to 15.5 nM. With `C[C@H]1COCCN1c1cc(C(C)(C)O)nc(-c2ccc(NC(=S)NC3CC3)cc2)n1` [Example 5b, 3-cyclopropyl-1-[4-[4-(2-hydroxypropan-2-yl)-6-[(3S)-3-methylmorpholin-4-yl]pyrimidin-2-yl]phenyl]thiourea] the figure was 38.4 nM; with `C[C@H]1COCCN1c1cc(C(C)(C)S(=O)(=O)CCCO)nc(-c2ccc(NC(=S)NC3CC3)cc2)n1` [Example 4, 3-Cyclopropyl-1-[4-[4-[2-(3-hydroxypropylsulfonyl)propan-2-yl]-6-[(3S)-3-methylmorpholin-4-yl]pyrimidin-2-yl]phenyl]thiourea], 161 nM; with `C[C@H]1COCCN1c1cc(CS(C)(=O)=O)nc(-c2ccc(NC(=S)Nc3ccc(F)cc3)cc2)n1` [Example 1d, 3-(4-fluorophenyl)-1-[4-[4-[(3S)-3-methylmorpholin-4-yl]-6-(methylsulfonylmethyl)pyrimidin-2-yl]phenyl]thiourea], 21.5 nM. For `CCNC(=S)Nc1ccc(-c2nc(N3CCOC[C@@H]3C)cc(C(C)(C)S(=O)(=O)CCCO)n2)cc1` [Example 4c, 3-ethyl-1-[4-[4-[2-(3-hydroxypropylsulfonyl)propan-2-yl]-6-[(3S)-3-methylmorpholin-4-yl]pyrimidin-2-yl]phenyl]thiourea] the value was 58.5 nM. Take `C[C@H]1COCCN1c1cc(C(C)(C)S(C)(=O)=O)nc(-c2ccc(NC(=S)NCCN(C)C)cc2)n1` [Example 2d, 3-(2-dimethylaminoethyl)-1-[4-[4-[(3S)-3-methylmorpholin-4-yl]-6-(2-methylsulfonylpropan-2-yl)pyrimidin-2-yl]phenyl]thiourea]: the IC50 is 305 nM. In the case of `C[C@H]1COCCN1c1cc(C(C)(C)S(=O)(=O)c2ccccc2)nc(-c2ccc(NC(=S)NCCO)cc2)n1` [Example 3c, 1-[4-[4-[2-(benzenesulfonyl)propan-2-yl]-6-[(3S)-3-methylmorpholin-4-yl]pyrimidin-2-yl]phenyl]-3-(2-hydroxyethyl)thiourea], the IC50 is 3.08 nM.

Regarding `CCNC(=S)Nc1ccc(-c2nc(N3CCOC[C@@H]3C)cc(C(C)(C)O)n2)cc1` [Example 5c, 3-ethyl-1-[4-[4-(2-hydroxypropan-2-yl)-6-[(3S)-3-methylmorpholin-4-yl]pyrimidin-2-yl]phenyl]thiourea], the IC50 is 37.4 nM.

With `CNC(=S)Nc1ccc(-c2nc(N3CCOC[C@@H]3C)cc(C(C)(C)O)n2)cc1` [Example 5a, 1-[4-[4-(2-hydroxypropan-2-yl)-6-[(3S)-3-methylmorpholin-4-yl]pyrimidin-2-yl]phenyl]-3-methylthiourea], the IC50 is 36.7 nM. Consider `CNC(=S)Nc1ccc(-c2nc(N3CCOC[C@@H]3C)cc(C(C)(C)S(=O)(=O)CCCO)n2)cc1` [Example 4b, 1-[4-[4-[2-(3-hydroxypropylsulfonyl)propan-2-yl]-6-[(3S)-3-methylmorpholin-4-yl]pyrimidin-2-yl]phenyl]-3-methylthiourea], for which the IC50 was determined as 154 nM. On to `C[C@H]1COCCN1c1cc(CS(C)(=O)=O)nc(-c2ccc(NC(=S)NC3CC3)cc2)n1` [Example 1, 3-Cyclopropyl-1-[4-[4-[(3S)-3-methylmorpholin-4-yl]-6-(methylsulfonylmethyl)pyrimidin-2-yl]phenyl]thiourea], for which the IC50 was determined as 19.7 nM. For `C[C@H]1COCCN1c1cc(C(C)(C)S(C)(=O)=O)nc(-c2ccc(NC(=S)NC3CC3)cc2)n1` [Example 2, 3-Cyclopropyl-1-[4-[4-[(3S)-3-methylmorpholin-4-yl]-6-(2-methylsulfonylpropan-2-yl)pyrimidin-2-yl]phenyl]thiourea] the value was 4.77 nM. Regarding `CCNC(=S)Nc1ccc(-c2nc(N3CCOC[C@@H]3C)cc(C(C)(C)S(=O)(=O)c3ccccc3)n2)cc1` [Example 3b, 1-[4-[4-[2-(benzenesulfonyl)propan-2-yl]-6-[(3S)-3-methylmorpholin-4-yl]pyrimidin-2-yl]phenyl]-3-ethylthiourea], the IC50 turned out to be 12.4 nM. As for `CCNC(=S)Nc1ccc(-c2nc(N3CCOC[C@@H]3C)cc(C(C)(C)S(C)(=O)=O)n2)cc1` [Example 2b, 3-ethyl-1-[4-[4-[(3S)-3-methylmorpholin-4-yl]-6-(2-methylsulfonylpropan-2-yl)pyrimidin-2-yl]phenyl]thiourea], the IC50 amounted to 6.8 nM. Take `C[C@H]1COCCN1c1cc(C(C)(C)S(=O)(=O)c2ccccc2)nc(-c2ccc(NC(=S)NC3CC3)cc2)n1` [Example 3a, 1-[4-[4-[2-(benzenesulfonyl)propan-2-yl]-6-[(3S)-3-methylmorpholin-4-yl]pyrimidin-2-yl]phenyl]-3-cyclopropylthiourea]: the IC50 was 7.17 nM.

For `CNC(=S)Nc1ccc(-c2nc(N3CCOC[C@@H]3C)cc(C(C)(C)S(C)(=O)=O)n2)cc1` [Example 2a, 3-methyl-1-[4-[4-[(3S)-3-methylmorpholin-4-yl]-6-(2-methylsulfonylpropan-2-yl)pyrimidin-2-yl]phenyl]thiourea], the IC50 was 5.1 nM. Consider `CCNC(=S)Nc1ccc(-c2nc(CS(C)(=O)=O)cc(N3CCOC[C@@H]3C)n2)cc1` [Example 1a, 3-ethyl-1-[4-[4-[(3S)-3-methylmorpholin-4-yl]-6-(methylsulfonylmethyl)pyrimidin-2-yl]phenyl]thiourea], for which the IC50 is 17.7 nM.

In general, IC50 refers to the midpoint of a concentration-inhibition curve.
